Key:
lipoamide = compound: NC(=O)CCCCC1CCSS1 [lipoamide]; assay: thermal stability z-score vs DMSO; higher = more thermally stabilized by treatment; conditions: HeLa, lipoamide concentration 100 µM
Protocol: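 Cellular thermal proteome profiling in HeLa cells. Cells were treated with 100 µM lipoamide for 1 h, with or without 1 mM arsenate for a further 1 h, then heated to ten temperatures (37-66.3 °C), and soluble protein was quantified by TMT mass spectrometry relative to 0.1% DMSO controls. The thermal stability score (sum of log2 fold changes minus the abundance score) was transformed to a z-score; mean of n = 3 experiments.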

potassium arsenate = compound: O=[As]([O-])(O)O.[K+] [potassium arsenate]; assay: as above; conditions: HeLa; arsenate concentration 1 mM
Protocol: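 Cellular thermal proteome profiling in HeLa cells treated with 1 mM arsenate for 1 h (DMSO pretreatment), heated to ten temperatures (37-66.3 °C). Soluble protein was quantified by TMT mass spectrometry relative to DMSO controls; the thermal stability score was transformed to a z-score; mean of n = 3 experiments.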

[1] = arsenate co-treatment: 1 mM arsenate 1 h
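Further: each temperature applied for 3 min, abundance score taken as mean log2 fold change at the two lowest temperatures, z-score obtained by mean subtraction and division by SD.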

Chain of UniProt Q8N3U4 (Q8N3U4 whole entry): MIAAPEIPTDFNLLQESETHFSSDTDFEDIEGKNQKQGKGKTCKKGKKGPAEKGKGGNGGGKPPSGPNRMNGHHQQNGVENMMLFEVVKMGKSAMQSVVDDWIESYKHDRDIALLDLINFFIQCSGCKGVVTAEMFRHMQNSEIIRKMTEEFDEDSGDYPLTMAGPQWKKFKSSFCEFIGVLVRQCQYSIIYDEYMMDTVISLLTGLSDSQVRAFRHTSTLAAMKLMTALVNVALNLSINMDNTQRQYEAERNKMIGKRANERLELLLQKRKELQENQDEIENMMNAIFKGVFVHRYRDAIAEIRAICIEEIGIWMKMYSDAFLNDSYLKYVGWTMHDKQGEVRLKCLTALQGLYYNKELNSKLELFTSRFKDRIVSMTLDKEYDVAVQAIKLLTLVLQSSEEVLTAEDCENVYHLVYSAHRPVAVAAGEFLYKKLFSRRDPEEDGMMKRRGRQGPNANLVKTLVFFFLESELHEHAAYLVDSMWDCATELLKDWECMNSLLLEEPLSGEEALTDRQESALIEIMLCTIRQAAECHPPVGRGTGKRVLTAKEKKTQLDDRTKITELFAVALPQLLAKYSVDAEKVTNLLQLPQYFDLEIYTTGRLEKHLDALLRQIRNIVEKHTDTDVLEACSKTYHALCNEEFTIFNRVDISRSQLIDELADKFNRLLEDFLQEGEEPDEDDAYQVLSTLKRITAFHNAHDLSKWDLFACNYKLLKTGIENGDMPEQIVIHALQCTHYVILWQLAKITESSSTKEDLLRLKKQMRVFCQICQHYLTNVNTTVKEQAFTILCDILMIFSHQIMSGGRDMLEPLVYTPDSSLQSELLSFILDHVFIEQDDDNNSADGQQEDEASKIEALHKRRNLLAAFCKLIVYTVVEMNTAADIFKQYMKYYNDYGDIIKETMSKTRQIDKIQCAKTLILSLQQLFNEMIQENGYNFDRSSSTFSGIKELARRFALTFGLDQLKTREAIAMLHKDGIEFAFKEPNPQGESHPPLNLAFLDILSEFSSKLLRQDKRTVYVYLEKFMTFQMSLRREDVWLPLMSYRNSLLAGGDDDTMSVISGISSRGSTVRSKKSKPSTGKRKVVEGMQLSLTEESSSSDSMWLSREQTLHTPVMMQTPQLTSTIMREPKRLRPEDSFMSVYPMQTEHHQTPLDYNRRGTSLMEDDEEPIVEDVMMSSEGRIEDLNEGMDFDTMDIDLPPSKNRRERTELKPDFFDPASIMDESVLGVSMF
Chain of UniProt P36969 (P36969 whole entry): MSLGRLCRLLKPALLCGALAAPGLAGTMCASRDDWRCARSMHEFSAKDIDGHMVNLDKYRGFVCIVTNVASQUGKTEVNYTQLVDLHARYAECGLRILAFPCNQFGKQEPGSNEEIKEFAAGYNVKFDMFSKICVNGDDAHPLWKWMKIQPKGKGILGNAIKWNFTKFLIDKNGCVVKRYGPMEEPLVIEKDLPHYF
Chain of UniProt Q99807 (Q99807 whole entry): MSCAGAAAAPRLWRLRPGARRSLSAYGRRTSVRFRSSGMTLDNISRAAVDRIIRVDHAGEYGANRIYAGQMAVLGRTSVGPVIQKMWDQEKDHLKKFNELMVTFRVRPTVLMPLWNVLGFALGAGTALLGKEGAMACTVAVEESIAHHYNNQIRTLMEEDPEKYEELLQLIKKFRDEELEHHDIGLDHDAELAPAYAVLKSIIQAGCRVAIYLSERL
Chain of UniProt Q8NBN3 (Q8NBN3 whole entry): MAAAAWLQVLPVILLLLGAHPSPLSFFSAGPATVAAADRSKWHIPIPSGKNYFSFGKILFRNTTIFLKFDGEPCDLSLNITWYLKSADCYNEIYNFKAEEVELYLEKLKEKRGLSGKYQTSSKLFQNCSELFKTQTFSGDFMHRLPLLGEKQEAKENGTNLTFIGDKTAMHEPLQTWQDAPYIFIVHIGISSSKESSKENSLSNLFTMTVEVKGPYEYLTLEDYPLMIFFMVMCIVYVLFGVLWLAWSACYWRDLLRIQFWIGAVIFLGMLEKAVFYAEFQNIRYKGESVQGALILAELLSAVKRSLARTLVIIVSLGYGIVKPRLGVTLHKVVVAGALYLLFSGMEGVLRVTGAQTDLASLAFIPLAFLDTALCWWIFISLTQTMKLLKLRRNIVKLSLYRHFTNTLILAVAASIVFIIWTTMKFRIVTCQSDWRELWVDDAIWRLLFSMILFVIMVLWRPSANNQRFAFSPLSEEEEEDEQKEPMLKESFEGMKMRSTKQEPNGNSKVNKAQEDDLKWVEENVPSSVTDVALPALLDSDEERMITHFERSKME
Chain of UniProt Q9H079 (Q9H079 whole entry): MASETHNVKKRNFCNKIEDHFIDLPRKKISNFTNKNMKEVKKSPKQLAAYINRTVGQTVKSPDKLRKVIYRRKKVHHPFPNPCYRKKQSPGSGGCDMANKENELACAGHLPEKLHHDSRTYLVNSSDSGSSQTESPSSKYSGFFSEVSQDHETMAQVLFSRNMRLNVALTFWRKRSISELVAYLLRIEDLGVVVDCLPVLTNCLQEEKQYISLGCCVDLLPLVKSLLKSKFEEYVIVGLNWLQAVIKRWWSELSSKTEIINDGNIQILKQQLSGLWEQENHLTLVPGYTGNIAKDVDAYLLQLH
Chain of UniProt O14730 (O14730 whole entry): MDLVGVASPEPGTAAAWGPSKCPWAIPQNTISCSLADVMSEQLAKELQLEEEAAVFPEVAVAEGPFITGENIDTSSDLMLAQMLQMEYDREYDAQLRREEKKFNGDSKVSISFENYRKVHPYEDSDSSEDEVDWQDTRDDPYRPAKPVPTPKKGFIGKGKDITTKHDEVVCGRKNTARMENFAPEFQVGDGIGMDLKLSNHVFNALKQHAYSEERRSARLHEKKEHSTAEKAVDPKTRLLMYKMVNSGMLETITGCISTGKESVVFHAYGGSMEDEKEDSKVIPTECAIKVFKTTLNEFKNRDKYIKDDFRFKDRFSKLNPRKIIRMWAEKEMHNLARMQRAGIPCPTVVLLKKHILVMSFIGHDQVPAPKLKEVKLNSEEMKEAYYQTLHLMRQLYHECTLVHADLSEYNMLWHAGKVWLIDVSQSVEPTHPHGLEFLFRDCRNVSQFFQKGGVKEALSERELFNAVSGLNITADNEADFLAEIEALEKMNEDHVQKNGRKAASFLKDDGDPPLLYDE
Chain of UniProt Q08722 (Q08722 whole entry): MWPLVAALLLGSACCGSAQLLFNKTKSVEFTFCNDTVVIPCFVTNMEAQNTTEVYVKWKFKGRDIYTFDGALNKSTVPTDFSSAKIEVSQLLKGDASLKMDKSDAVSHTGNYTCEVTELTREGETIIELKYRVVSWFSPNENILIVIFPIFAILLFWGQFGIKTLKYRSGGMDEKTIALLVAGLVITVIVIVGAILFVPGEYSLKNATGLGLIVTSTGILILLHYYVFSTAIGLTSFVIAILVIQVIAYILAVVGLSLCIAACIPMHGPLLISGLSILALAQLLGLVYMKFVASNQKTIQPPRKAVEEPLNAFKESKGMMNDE
Chain of UniProt Q13867 (Q13867 whole entry): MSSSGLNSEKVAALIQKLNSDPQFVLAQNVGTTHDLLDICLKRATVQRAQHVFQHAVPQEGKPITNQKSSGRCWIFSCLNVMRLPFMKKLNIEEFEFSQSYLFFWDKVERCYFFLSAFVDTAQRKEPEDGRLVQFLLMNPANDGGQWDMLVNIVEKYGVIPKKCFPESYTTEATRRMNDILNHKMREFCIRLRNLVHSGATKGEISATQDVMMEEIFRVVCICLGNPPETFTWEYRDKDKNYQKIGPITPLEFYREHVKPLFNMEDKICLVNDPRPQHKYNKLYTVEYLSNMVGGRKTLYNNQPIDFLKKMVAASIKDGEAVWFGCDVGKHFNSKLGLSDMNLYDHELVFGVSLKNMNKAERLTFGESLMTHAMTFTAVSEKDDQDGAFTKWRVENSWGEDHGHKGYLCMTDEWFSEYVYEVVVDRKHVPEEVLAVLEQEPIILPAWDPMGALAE
Chain of UniProt Q8N8R3 (Q8N8R3 whole entry): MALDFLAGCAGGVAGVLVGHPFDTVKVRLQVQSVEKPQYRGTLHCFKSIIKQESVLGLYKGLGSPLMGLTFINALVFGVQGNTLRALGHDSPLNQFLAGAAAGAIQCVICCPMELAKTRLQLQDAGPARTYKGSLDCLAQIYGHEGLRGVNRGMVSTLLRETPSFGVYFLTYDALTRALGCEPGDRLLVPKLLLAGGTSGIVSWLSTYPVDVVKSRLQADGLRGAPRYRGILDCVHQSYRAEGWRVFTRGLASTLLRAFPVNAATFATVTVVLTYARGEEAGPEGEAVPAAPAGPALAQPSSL
Chain of UniProt O14737 (O14737 whole entry): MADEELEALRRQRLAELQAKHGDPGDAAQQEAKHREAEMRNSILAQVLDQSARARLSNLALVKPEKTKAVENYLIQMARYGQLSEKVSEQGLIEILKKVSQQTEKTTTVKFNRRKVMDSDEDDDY
Chain of UniProt Q9H0S4 (Q9H0S4 whole entry): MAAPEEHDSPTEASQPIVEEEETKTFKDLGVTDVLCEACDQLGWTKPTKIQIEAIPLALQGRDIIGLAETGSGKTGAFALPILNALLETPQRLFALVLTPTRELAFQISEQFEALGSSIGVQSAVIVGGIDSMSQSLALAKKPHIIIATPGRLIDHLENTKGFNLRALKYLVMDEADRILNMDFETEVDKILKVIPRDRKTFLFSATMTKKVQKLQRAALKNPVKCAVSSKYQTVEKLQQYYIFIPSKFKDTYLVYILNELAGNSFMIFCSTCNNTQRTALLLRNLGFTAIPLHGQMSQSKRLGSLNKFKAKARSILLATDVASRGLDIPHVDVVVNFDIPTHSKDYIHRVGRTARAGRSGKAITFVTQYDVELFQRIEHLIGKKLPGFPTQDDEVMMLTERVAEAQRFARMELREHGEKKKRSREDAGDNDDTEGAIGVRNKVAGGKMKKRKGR
Chain of UniProt Q8WXB1 (Q8WXB1 whole entry): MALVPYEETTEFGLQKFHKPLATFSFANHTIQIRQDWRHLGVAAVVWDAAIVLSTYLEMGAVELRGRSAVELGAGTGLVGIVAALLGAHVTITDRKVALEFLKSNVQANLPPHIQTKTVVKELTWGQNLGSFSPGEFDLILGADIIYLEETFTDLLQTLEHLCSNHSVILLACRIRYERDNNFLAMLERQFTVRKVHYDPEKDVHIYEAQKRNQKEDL

Target	thermal stability z-score (lipoamide; [1])	thermal stability z-score (lipoamide; arsenate co-treatment: none)	thermal stability z-score (potassium arsenate)
COQ7 (UniProt Q99807)	-0.0244	0.331	0.227
SSX2IP (UniProt Q9Y2D8)	-0.271	-0.143	-0.0542
DAPK3 (UniProt O43293)	-0.0576	-0.0876	0.228
CUL7 (UniProt Q14999)	0.0636	0.0136	-0.113
TMEM87A (UniProt Q8NBN3)	0.451	0.36	0.645
METTL21A (UniProt Q8WXB1)	0.425	-0.307	0.26
KATNBL1 (UniProt Q9H079)	0.226	0.62	0.427
CAPZA1 (UniProt P52907)	-0.236	0.183	0.38
STAG2 (UniProt Q8N3U4)	0.281	0.393	-0.0489
PHF14 (UniProt O94880)	-0.247	0.314	-0.242
TCEAL1 (UniProt Q15170)	0.347	0.809	0.192
NUMA1 (UniProt Q14980)	0.34	0.207	-1.48
BLMH (UniProt Q13867)	0.51	0.365	0.0746
CD47 (UniProt Q08722)	2.42	1.31	0.869
SLC25A29 (UniProt Q8N8R3)	0.136	-0.0401	-0.111
ZHX3 (UniProt Q9H4I2)	-0.187	-0.116	-0.227
RIOK3 (UniProt O14730)	-0.0448	-0.0085	0.507
ARHGEF10 (UniProt O15013)	-0.746	-0.324	0.964
DTX2 (UniProt Q86UW9)	-0.228	0.0239	-0.381
XYLB (UniProt O75191)	-0.0179	-0.17	0.149
APIP (UniProt Q96GX9)	0.597	0.408	-0.0221
MSI2 (UniProt Q96DH6)	0.43	0.136	0.082
POLR2B (UniProt P30876)	0.77	0.769	0.205
APH1A (UniProt Q96BI3)	0.28	-0.0861	-0.696
ARF4 (UniProt P18085)	-0.409	-0.09	-0.609
KPNA3 (UniProt O00505)	-1.01	-0.146	-0.288
GPX4 (UniProt P36969)	-0.524	-0.696	0.286
DDX47 (UniProt Q9H0S4)	1.72	0.253	0.634
PDCD5 (UniProt O14737)	1.01	0.727	0.417
SUOX (UniProt P51687)	-0.266	-0.279	0.168

From the supplement of paper PMC12463676, “Small-molecule dissolution of stress granules by redox modulation benefits ALS models” (Nature Chemical Biology, 2025)
